# From patent US20220040219A1, “COMPOSITIONS AND METHODS FOR TREATING CYSTIC FIBROSIS” (SpliSense Ltd., priority 2019, published 2022)
# Target: T1, CFTR del Ex23 (Homo sapiens, UniProt P13569, DEL1240-1291)
# T1 construct: expressed in transfected cells; host or cells: HEK 293 cells, transient transfection with Lipofectamine 2000
# Assay: FLIPR membrane potential assay of CFTR function in HEK 293 cells transiently transfected with CFTR del Ex23
# Format: cell-based
# Settings: forskolin 10 μM, addition of potentiator VX-770 (1 μM), FIG. 1B
# Description: HEK cells were transiently transfected with a construct bearing a CFTR transcript having exon 23 completely deleted from it (CFTR del Ex23). Transfection was carried out using Lipofectamine 2000 transfection reagent (Invitrogen) according to the lipofectamine 2000 reagent protocol using the following lipofectamine amounts: 96 well—0.15 μl, 6 well—3 μl, […]—15 μl.
# HEK cells transfected with the CFTR del Ex23 contruct were grown in 96-well (black, flat bottom; corning) plates. 48 hr post-transfection, CFTR channel function was analyzed using the FLIPR membrane potential assay as previously described (Molinski et al., 2015). Briefly, the cells were loaded with blue membrane potential dye (Molecular Devices), which can detect changes in transmembrane potential. The plate was then read in a fluorescence plate reader (BioTek Synergy H1) for baseline levels followed by CFTR stimulation using the cAMP agonist forskolin (10 μM; Sigma), DMSO vehicle was used as a negative control. CFTR-mediated depolarization of the plasma membrane was detected as an increase in fluorescence and hyperpolarization (or repolarization) as a decrease. […]
# FLIPR™ (Fluorescence Imaging Plate Reader) is a functional system that allows measuring changes in membrane potential by a fluorescent indicator. […]
# T1 sequence (P13569 with tags, fused parts or gaps DEL1240-1291): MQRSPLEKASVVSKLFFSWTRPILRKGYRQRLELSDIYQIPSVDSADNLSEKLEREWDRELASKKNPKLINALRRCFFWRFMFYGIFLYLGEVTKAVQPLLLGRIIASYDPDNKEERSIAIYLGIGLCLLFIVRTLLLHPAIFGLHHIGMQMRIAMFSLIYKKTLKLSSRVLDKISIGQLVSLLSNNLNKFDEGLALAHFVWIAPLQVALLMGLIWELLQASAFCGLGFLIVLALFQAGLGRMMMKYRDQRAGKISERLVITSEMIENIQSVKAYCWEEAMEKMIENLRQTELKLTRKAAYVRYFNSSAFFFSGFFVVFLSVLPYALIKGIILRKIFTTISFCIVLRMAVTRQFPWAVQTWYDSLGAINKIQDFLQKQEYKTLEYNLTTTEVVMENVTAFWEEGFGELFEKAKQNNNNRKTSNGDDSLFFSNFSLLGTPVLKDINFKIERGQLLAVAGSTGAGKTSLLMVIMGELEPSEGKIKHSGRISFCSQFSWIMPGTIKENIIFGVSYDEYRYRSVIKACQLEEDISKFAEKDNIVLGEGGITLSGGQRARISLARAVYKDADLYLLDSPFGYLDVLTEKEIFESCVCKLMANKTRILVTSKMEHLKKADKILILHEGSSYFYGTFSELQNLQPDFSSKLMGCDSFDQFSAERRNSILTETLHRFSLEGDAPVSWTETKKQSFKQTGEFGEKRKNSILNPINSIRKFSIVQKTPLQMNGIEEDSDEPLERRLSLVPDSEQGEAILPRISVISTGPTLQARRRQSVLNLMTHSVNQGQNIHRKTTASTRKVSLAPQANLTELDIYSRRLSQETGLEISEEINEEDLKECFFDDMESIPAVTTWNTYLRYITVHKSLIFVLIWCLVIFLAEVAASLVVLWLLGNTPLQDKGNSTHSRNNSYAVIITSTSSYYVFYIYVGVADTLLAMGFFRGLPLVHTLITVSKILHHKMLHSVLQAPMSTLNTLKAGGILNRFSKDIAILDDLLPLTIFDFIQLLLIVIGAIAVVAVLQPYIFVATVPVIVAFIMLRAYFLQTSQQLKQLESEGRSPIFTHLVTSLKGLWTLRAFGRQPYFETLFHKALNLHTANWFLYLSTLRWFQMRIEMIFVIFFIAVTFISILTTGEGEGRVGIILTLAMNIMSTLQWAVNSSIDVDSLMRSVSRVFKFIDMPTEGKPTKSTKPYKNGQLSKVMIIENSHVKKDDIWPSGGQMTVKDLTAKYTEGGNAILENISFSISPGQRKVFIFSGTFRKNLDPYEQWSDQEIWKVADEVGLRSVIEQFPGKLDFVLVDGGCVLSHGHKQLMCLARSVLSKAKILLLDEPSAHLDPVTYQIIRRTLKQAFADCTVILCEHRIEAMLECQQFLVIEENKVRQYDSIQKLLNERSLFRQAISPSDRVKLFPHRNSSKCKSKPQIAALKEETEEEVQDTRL
compound,measurement,value
"CC(C)(C)c1cc(C(C)(C)C)c(NC(=O)c2c[nH]c3ccccc3c2=O)cc1O [VX-770, N-(2,4-Di-tert-butyl-5-hydroxyphenyl)-4-oxo-1,4-dihydroquinoline-3-carboxamide]",channel activation,35 % of WT
